Assay results as given in US10690666B2, “Methods and compositions for modulating TH-GM cell function” (National University of Singapore, priority 2014, dated 2020).

Tests used:
[1] = system: neutrophils; experiment: In vitro neutrophil transmigration assay; assay type: cell-based, mouse; conditions: as chemoattractant; 3 h
Protocol: (§1) FIGS. 33A-33C depicts GM-CSF enhances neutrophil transmigration and delay apoptosis in vitro. (FIG. 33A) Percentages of migrated neutrophils with or without GM-CSF as chemoattractant in transmigration assay at 3 h post start. (FIG. 33B) Microscopic images of CFSE-labeled neutrophils in the bottom of the lower chamber in transmigration assay. (FIG. 33C) Sorted neutrophils were cultured in vitro with or without GM-CSF (20 ng/ml) for 24 h. Neutrophils undergoing apoptosis were examined by Annexin V and propidium iodide (PI) co-staining. A representative flow cytometry of three repeats was shown. *p<0.05.
(§2) Neutrophils are recruited during inflammation, in which complex interactions between neutrophils and vascular endothelial cells direct neutrophil adhesion and transmigration from circulation to inflamed tissues (Kolaczkowska and Kubes, 2013). […] Effective neutrophil apoptosis is crucial for the resolution of inflammation. However, in synovitis, neutrophil apoptosis is delayed with a result of extended survival and persistent inflammation (Wright et al., 2014). […] To determine the critical role of neutrophils in AIA, \ neutralizing antibody (1A8) specific for Ly6G was used to deplete neutrophils in vivo. […] Thus, neutrophils accumulation mediated by TH-cell-derived GM-CSF are important for AIA development.

[2] = system: neutrophils; experiment: Neutrophil apoptosis, Annexin V and PI co-staining; assay type: cell-based, mouse; conditions: 20 ng/ml, 24 h
Protocol: as §1, §2

[3] = system: AIA mice; experiment: Antigen-induced arthritis (AIA) model; assay type: in vivo, mouse
Source text: FIGS. 25A-25E depict distinguishable effects of GM-CSF and TNF-α in mouse AIA. […] Data are representative of more than three independent experiments. Representative images of joint sections stained with H&E (FIG. 25C) or Safranin-O/Fast Green (FIG. 25D) at day 7 after arthritis induction as in FIG. 25C. Bars, 500 μm (FIG. 25C upper panels and FIG. 25D) or 100 μm (FIG. 25C lower panels). Arrow in upper panels (FIG. 25C) indicated bone destruction. In FIG. 25E, serum concentrations of GM-CSF, IFN-γ and TNF-α in Stat5^+/+ and Stat5−/− AIA mice were quantified by ELISA. Statistics of n>=8 per group were shown. *p<0.05, **p<0.01, ***p<0.001.
FIGS. 28A-28G depicts STAT5-regulated GM-CSF-producing TH cells are crucial for AIA. Spleens and synovial tissues were collected from Stat5^+/+ and Stat5^−/− mice at day 7 after arthritis induction. (FIG. 28A) Splenic fractions of wild-type AIA mice (n=3) were stimulated under indicated conditions for 18 h. GM-CSF levels in supernatant were quantified by ELISA. (FIGS. 28B-28D) Intracellular staining and flow cytometry of GM-CSF, IL-17 and IFN-γ in splenic CD4^+CD44^hi effector T cells (FIG. 28B) or in synovial infiltrating CD4^+ T cells (FIGS. 28C and 28D) after restimulation for 4 h with PMA/Ionomycin in the presence of Golgiplug. Representative images and statistics of n=5 (FIG. 28B, right panels) or n=3 (FIG. 28D, right panels) per group were shown. Data represent two independent experiments. (FIG. 28E) Protein expression of several proinflammatory cytokines in synovial tissues was measured by ELISA. (FIGS. 28F and 28G) Representative images of joint sections stained with H&E (FIG. 28F) or Safranin-O/Fast Green (FIG. 28G) at day 7 after intraarticular injection of mBSA alone to the right knee joints and mBSA supplemented with GM-CSF to the left knee joints. Bars, 500, 50 or 200 μm as indicated. Data represent two independent experiments.*p<0.05, **p<0.01, p<0.05, **p<0.01, ***p<0.001; ns, not significant. “Splenocytes” represent the left-most bars in each group, “splenocytes depleted of CD4+ T cells” represent the middle bars in each group, and “CD4+ T cells” represent the right-most bars in each group.
FIGS. 31A-31D depicts SAT5-induced GM-CSF expression mediates CD11b^+ cell accumulation in inflamed synovial tissues. (FIG. 31A) The frequencies of CD11b^+ cells in spleens of Stat5^+/+ and Stat5^−/− AIA mice were analyzed by flow cytometry. Statistics of n=3 per group (right panel) were shown. (FIG. 31B) Synovial tissues were harvested from Stat5^+/+ and Stat5^−/− mice at day 7 after arthritis induction, and dissociated into single cell suspensions. The percentage of CD11b^+ myeloid cells among CD45^+ fraction was analyzed by flow cytometry. Statistics of n=5 per group were shown in right panel. […]

[4] = 100 ng intraarticular together with mBSA, day 7

GM-CSF: granulocyte macrophage colony-stimulating factor (ImmunoTools) given intraarticularly or added to cell cultures
neutrophil adhesion and migration across monolayers of endothelial cells [1]: significantly enhanced | neutrophil apoptosis [2]: profound efficacy in delaying neutrophil apoptosis | cartilage depletion in Stat5−/− mice (Safranin-O/Fast Green) [3, 4]: severe cartilage depletion | synovial inflammation in Stat5−/− mice [3, 4]: efficiently restored synovial inflammation | neutrophil accumulation in synovial compartments of STAT5-deficient mice ([3]; intraarticular administration during arthritis induction): efficiently restored neutrophil accumulation | synovial CD11b+ cell accumulation in STAT5-deficient mice ([3]; local administration during arthritis induction): partially restored
